From patent US11135214B2, “Methods for enhancing the bio availability and exposure of a voltage-gated potassium channel opener” (priority 2018, dated 2021)
Where “and” joins values, the source holds several entries; their conditions need not be identical. Identical values can stand only once. Like-named read-outs stand apart in the source and are kept apart here.

Assay: TMS crossover study, pharmacokinetic analysis
Format: in vivo, human
Conditions: for extrapolated area (% AUCextrap): full PK data set; for Compound A Plasma Concentration: individual subjects; for concentration at 2 h / concentration at 4 h / concentration at 6 h / half-life / AUC(0-t) / Cmax / Tmax / AUC(0-inf) / MRT inf / MRT last / CL/F / Vd/F: male, human, plasma, oral; for Vd/F: read-out: Vz/F normalized
Method: A randomized, double-blind, placebo-controlled, transcranial magnetic stimulation (TMS) crossover study investigated the safety, tolerability, pharmacokinetics (PK), and pharmacodynamics (PD) of single doses of Compound A in healthy right-handed male subjects.
Twenty healthy right-handed male subjects were enrolled and randomized in a blinded fashion to receive a single oral dose of 20 mg Compound A or placebo (1:1 randomization ratio) on Day 1, then were crossed over to receive a single dose of the other treatment on Day 7.
Subjects were screened within 27 days prior to entering the study on Day 1. For Period 1, subjects were admitted to the study unit and dosed on Day 1, and discharged on Day 2. For Period 2, following a washout of 6 days, the same subjects were again admitted to the study unit and dosed on Day 7, and discharged on Day 8. All subjects returned to the clinical unit for an outpatient visit on Day 14, and received a follow-up telephone call on Day 37.
Subjects were dosed in a fed state, but the timing of dosing relative to meals was changed during the study, and varied between a high fat or standard meal eaten either 2 h or 30 minutes prior to dosing, and a high fat or standard meal eaten 1 h or 2.5 h after dosing.
The PK parameters for this study were summarized in two ways. Firstly, PK parameters were calculated where possible using the PK samples collected during each 24 h sampling period for Period 1 and Period 2 separately. Secondly, PK parameters were determined using samples beyond the 24 h sampling period (i.e., from Day 7/8 and/or Day 14). For subjects who received Compound A in the first period, PK samples taken prior to placebo treatment provided additional PK timepoints at >24 h. For subjects who received Compound A in the second period, there was no >24 h PK timepoint until a Day 14 PK sample was added. […] The full PK profile data set consists of the 16 subjects for whom PK samples were taken at >24 h post-dose. For discussion of the PK parameters below, the full PK profile data set was generally used, because it allowed more accurate estimation of PK parameters.
Initially, subjects were dosed 2 hours after a high fat meal with a relatively high fat lunch provided 1 hour after dosing. After blinded review of the PK profiles in the initial 8 subjects, the fat content of the lunch was reduced in an attempt to reduce the time to Tmax, so that the Cmax would fall within the timeframe of TMS measurements. In addition, the timing of the meal relative to dose was changed from 2 hours prior, to 30 minutes prior to dose and subsequently the fat content of the breakfast was reduced. All these changes were made in attempts to provide higher plasma levels during the TMS assessment periods. The timing and type of meal for each subject is specified in Table 13. […] As such the PK data is presented without categorization according to meal content, or relative timing of the meal.

[1] = 20 mg, Full PK Profile (N=16), Mean ± SD
[2] = 20 mg, Full PK Profile (N=16), Range
[3] = 20 mg, Full PK Profile Data Set (N=16), Range
[4] = 20 mg, Full PK Profile Data Set (N=16), Mean ± SD

Cc1cc(N2CCc3cc(F)ccc3C2)cc(C)c1NC(=O)CC(C)(C)C [Compound A, N-[4-(6-fluoro-3,4-dihydro-1H-isoquinolin-2-yl)-2,6-dimethylphenyl]-3,3-dimethylbutanamide]
time of median peak plasma concentrations after administration (20 mg oral dose): approximately 8 hours
Tlast [1]: 235 ± 81.5 h
Tlast [2]: 142 to 360 h
MRTinf [3]: 33 ± 304 h
t1/2 [3]: 48.2 ± 306 h
Tlast (20 mg, Overall (N=20), Mean): 23.8 h
Tlast (20 mg, Overall (N=20), Range): 23.1 to 24.3 h
Tlast (20 mg, Period 1 (N=10), Mean): 23.8 h
Tlast (20 mg, Period 1 (N=10), Range): 23.1 to 24.3 h
Tlast (20 mg, Period 2 (N=10), Mean): 23.8 h
Tlast (20 mg, Period 2 (N=10), Range): 23.5 to 24.1 h
% AUCextrap, highest values (20 mg, a number of subjects above 20%): ≤ 40%
extrapolated area (% AUCextrap) (20 mg, median): 19.9%
extrapolated area (% AUCextrap) (20 mg, range): 10.6-40.5%
Compound A Plasma Concentration (Compound A Treatment Period, 20 mg, 2 h, 5 minutes before TMS): 47.2 ng/mL and 1.55 ng/mL and 34 ng/mL and 0 ng/mL (5×) and 55.2 ng/mL and 10.6 ng/mL and 47.1 ng/mL and 3.1 ng/mL and 1.95 ng/mL and 25.7 ng/mL and 2.74 ng/mL and 10.7 ng/mL and 2.52 ng/mL and 8.01 ng/mL
Compound A Plasma Concentration (Compound A Treatment Period, 20 mg, 4 h, 5 minutes before TMS): 38.7 ng/mL and 8.92 ng/mL and 48.4 ng/mL and 16.5 ng/mL and 50 ng/mL and 24.5 ng/mL and 38 ng/mL and 4.91 ng/mL and 2.54 ng/mL and 29.8 ng/mL and 4.06 ng/mL and 60.7 ng/mL and 22.3 ng/mL and 32.7 ng/mL and 52.1 ng/mL and 8.77 ng/mL and 41.9 ng/mL
Compound A Plasma Concentration (Compound A Treatment Period, 20 mg, 6 h, 5 minutes before TMS): 49.7 ng/mL and 71.2 ng/mL and 48.5 ng/mL and 47.0 ng/mL and 39.1 ng/mL and 37.6 ng/mL and 4.43 ng/mL and 51.9 ng/mL and 6.23 ng/mL and 57.6 ng/mL and 53.2 ng/mL and 54.9 ng/mL and 52.2 ng/mL and 25.1 ng/mL and 79.4 ng/mL
Compound A Plasma Concentration (Placebo Treatment Period (carry-over), 2 h): 0 ng/mL (9×) and 4.96 ng/mL and 5.27 ng/mL and 6.28 ng/mL and 3.81 ng/mL and 5.74 ng/mL and 3.94 ng/mL and 7.44 ng/mL and 8.04 ng/mL
Compound A Plasma Concentration (Placebo Treatment Period (carry-over), 4 h): 0 ng/mL (9×) and 4.35 ng/mL and 4.48 ng/mL and 5.51 ng/mL and 3.6 ng/mL and 5.36 ng/mL and 3.66 ng/mL and 6.83 ng/mL and 8.15 ng/mL
Compound A Plasma Concentration (Placebo Treatment Period (carry-over), 6 h): 0 ng/mL (8×) and 5.56 ng/mL and 5.75 ng/mL and 3.42 ng/mL and 5.61 ng/mL and 3.44 ng/mL and 6.67 ng/mL and 8.22 ng/mL
Average high concentration of Compound A (during TMS assessment (FIG. 11, 12)): 45 ng/mL
concentration at 2 h (20 mg, Compound A Treatment Period, 2 h, Mean): 15.9 ng/mL
concentration at 4 h (20 mg, Compound A Treatment Period, 4 h, Mean): 30.1 ng/mL
concentration at 6 h (20 mg, Compound A Treatment Period, 6 h, Mean): 42.1 ng/mL
half-life [1]: 127 ± 84.6 h
AUC(0-t) (20 mg, Full PK Profile (N=16), Mean ± SD, read-out: AUC0-24): 692 ± 151 ng·h/mL
Cmax (20 mg, Full PK Profile (N=16), Mean ± SD, read-out: Cmax): 60.1 ± 14.9 ng/mL
Tmax (20 mg, Full PK Profile (N=16), Median): 6.83 h
Tmax [2]: 1.92 to 12 h
half-life [2]: 48.2 to 306 h
AUC(0-t) (20 mg, Full PK Profile (N=16), Range, read-out: AUC0-24): 383 to 951 ng·h/mL
Cmax (20 mg, Full PK Profile (N=16), Range, read-out: Cmax): 29.9 to 79.4 ng/mL
AUC(0-inf) [4]: 3160 ng·h/mL
MRT inf [4]: 102 h
MRT last [4]: 77.4 ± 23.7 h
half-life [4]: 127 h
AUC(0-t) (20 mg, Full PK Profile Data Set (N=16), Mean ± SD, read-out: AUClast): 2370 ng·h/mL
CL/F (20 mg, Full PK Profile Data Set (N=16), Mean ± SD, read-out: CL/F normalized (converted)): 1.62 mL/min/kg
Vd/F [4]: 16.3 L/kg
AUC(0-inf) [3]: 1920 ± 7390 ng·h/mL
MRT inf [3]: 33 to 304 h
MRT last [3]: 48.2 ± 122 h
half-life [3]: 48.2 to 306 h
AUC(0-t) (20 mg, Full PK Profile Data Set (N=16), Range, read-out: AUClast): 1580 ± 4400 ng·h/mL
CL/F (20 mg, Full PK Profile Data Set (N=16), Range, read-out: CL/F normalized (converted)): 0.672 mL/min/kg
Vd/F [3]: 6.4 ± 33.8 L/kg
half-life (20 mg, Overall (N=20), 24 h sampling, Mean ± SD): 11.1 ± 2.6 h
half-life (20 mg, Overall (N=20), 24 h sampling, Range): 8.01 to 14.9 h
AUC(0-t) (20 mg, Overall (N=20), Mean ± SD, read-out: AUC0-24): 687 ± 160 ng·h/mL
Cmax (20 mg, Overall (N=20), Mean ± SD, read-out: Cmax): 59.2 ± 13.8 ng/mL
Tmax (20 mg, Overall (N=20), Median): 7.8 h
Tmax (20 mg, Overall (N=20), Range): 1.9 to 12 h
AUC(0-t) (20 mg, Overall (N=20), Range, read-out: AUC0-24): 358 to 951 ng·h/mL
Cmax (20 mg, Overall (N=20), Range, read-out: Cmax): 29.9 to 79.4 ng/mL
half-life (20 mg, Period 1 (N=10), 24 h sampling, Mean ± SD): 11.4 ± 2.6 h
half-life (20 mg, Period 1 (N=10), 24 h sampling, Range): 8.46 to 14.9 h
AUC(0-t) (20 mg, Period 1 (N=10), Mean ± SD, read-out: AUC0-24): 693 ± 184 ng·h/mL
Cmax (20 mg, Period 1 (N=10), Mean ± SD, read-out: Cmax): 60.2 ± 17.3 ng/mL
Tmax (20 mg, Period 1 (N=10), Median): 6.94 h
Tmax (20 mg, Period 1 (N=10), Range): 1.92 to 12 h
AUC(0-t) (20 mg, Period 1 (N=10), Range, read-out: AUC0-24): 383 to 951 ng·h/mL
Cmax (20 mg, Period 1 (N=10), Range, read-out: Cmax): 29.9 to 77.1 ng/mL
half-life (20 mg, Period 2 (N=10), 24 h sampling, Mean ± SD): 10.6 ± 2.9 h
half-life (20 mg, Period 2 (N=10), 24 h sampling, Range): 8.01 to 14.3 h
AUC(0-t) (20 mg, Period 2 (N=10), Mean ± SD, read-out: AUC0-24): 681 ± 142 ng·h/mL
Cmax (20 mg, Period 2 (N=10), Mean ± SD, read-out: Cmax): 58.3 ± 9.94 ng/mL
Tmax (20 mg, Period 2 (N=10), Median): 7.83 h
Tmax (20 mg, Period 2 (N=10), Range): 1.92 to 8.15 h
AUC(0-t) (20 mg, Period 2 (N=10), Range, read-out: AUC0-24): 358 to 869 ng·h/mL
Cmax (20 mg, Period 2 (N=10), Range, read-out: Cmax): 46.2 to 79.4 ng/mL
concentration at 2 h (20 mg, Placebo Treatment Period (carry-over), 2 h, Mean, read-out: Compound A Plasma Concentration): 5.46 ng/mL
concentration at 4 h (20 mg, Placebo Treatment Period (carry-over), 4 h, Mean, read-out: Compound A Plasma Concentration): 5.17 ng/mL
concentration at 6 h (20 mg, Placebo Treatment Period (carry-over), 6 h, Mean, read-out: Compound A Plasma Concentration): 5.28 ng/mL
CL/F (20 mg, equivalent of 97.5 mL/h/kg, read-out: Body weight normalized clearance (CL/F)): ~1.6 mL/min/kg
Cmax (20 mg, subjects who received placebo in Period 2, mean, read-out: Cmax of Compound A in placebo treatment period): 5.84 ng/mL
Cmax (20 mg, subjects who received placebo in Period 2, range, read-out: Cmax of Compound A in placebo treatment period): 3.34 to 9.61 ng/mL
